For 15 compounds, IC50 results are on record in ChEMBL document CHEMBL1157405, “ent-Kaurane diterpenoids from Isodon japonicus” (J Nat Prod, 2008).

Broadly, the IC50 is the point on the concentration scale where inhibition reaches its midpoint.

In the assay the test system is RAW264.7. Nature of the assay: Inhibition of LPS-induced nitric oxide production in mouse RAW264.7 cells assessed as nitrite formation. In kind it is functional, cell-based.
`C=C1C(=O)[C@]23C[C@H]1CC[C@H]2[C@]1(COC3=O)[C@@H](OC(C)=O)CC[C@@](C)(COC(C)=O)[C@H]1C=O`: the IC50 was determined as 20.3 µM. As for `C=C1C(=O)[C@]23C[C@H]1CC[C@H]2[C@]12CCC[C@@](C)(COC(C)=O)[C@H]1[C@H](O)[C@]3(O)OC2` [LONGIKAURIN C], the figure is 1 µM; as for `C=C1C(=O)[C@]23C[C@H]1CC[C@H]2[C@]1(COC3=O)[C@@H](OC(C)=O)CC[C@@](C)(CO)[C@H]1COC(C)=O`, 8.7 µM. As for `C=C1C(=O)[C@]23C[C@H]1C[C@@H](O)[C@H]2[C@]1(COC3=O)[C@@H](OC(C)=O)CC[C@@](C)(COC(C)=O)[C@H]1C=O` [LOXOTHYRIN A], the figure is 24.2 µM.

As to `C=C1C(=O)[C@]23C[C@H]1CC[C@H]2[C@@]12CO[C@]3(O)[C@@H](O)[C@@H]1[C@](C)(COC(C)=O)CC[C@@H]2OC(C)=O` [EFFUSANIN D], the IC50 was found to be 3.3 µM. On to `C=C1C(=O)[C@]23C[C@H]1CC[C@H]2[C@]1(COC3=O)[C@@H](OC(C)=O)CC[C@@](C)(COC(C)=O)[C@H]1CO`, for which the concentration for half-maximal inhibition (IC50) worked out at 8.2 µM. Consider `C=C1C(=O)[C@]23[C@@H](O)[C@H]1CC[C@H]2[C@@]12COC3(O)C[C@@H]1C(C)(C)CC[C@@H]2O`, for which the IC50 was 8.5 µM. The result for `C=C1C(=O)[C@]23[C@H](O)[C@H]1CC[C@H]2[C@@]12CO[C@@]3(O)[C@@H](O)[C@@H]1[C@](C)(COC(C)=O)CC[C@@H]2OC(C)=O` [ISODOJAPONIN A] reads 6.3 µM; that for `C=C1C(=O)[C@@]23[C@H](O)C[C@@H]4C(C)(C)[C@@H](OC(C)=O)CC[C@@]4(C)[C@@H]2CC(=O)[C@@H]1[C@H]3O` [PSEURATA C], 5.4 µM; that for `C=C1C(=O)[C@@]23[C@H](O)C[C@@H]4C(C)(C)CC[C@H](O)[C@@]4(C)[C@@H]2C[C@H](OC(C)=O)[C@@H]1[C@H]3O` [EXCISANIN B], 3.3 µM.

With `C=C1C(=O)[C@]23[C@H](O)[C@H]1CC[C@H]2[C@]12CCC[C@@](C)(COC(C)=O)[C@H]1[C@H](O)[C@]3(O)OC2` [LONGIKAURIN B], the IC50 was 0.9 µM.

Turning to `C=C1C(=O)[C@]23[C@H](O)[C@H]1CC[C@H]2[C@@]12CO[C@@]3(O)[C@@H](O)[C@@H]1C(C)(C)CC[C@@H]2OC(C)=O` [LASIOKAURIN], the concentration for half-maximal inhibition (IC50) came to 1.6 µM.

Take `C=C1C(=O)[C@]23C[C@H]1CC[C@H]2[C@@]12CO[C@@]3(O)[C@@H](O)[C@@H]1[C@](C)(COC(C)=O)CC[C@@H]2O`: the 50% inhibitory concentration (IC50) came out at 5.9 µM. Take `C=C1C(=O)[C@]23C[C@H]1C[C@@H](O)[C@H]2[C@]12CCC[C@@](C)(COC(C)=O)[C@H]1[C@H](O)[C@]3(O)OC2` [LONGIKAURIN D]: the half-maximal inhibitory concentration (IC50) was 2 µM. The result for `C=C1C(=O)[C@]23C[C@H]1C[C@@H](OC(C)=O)[C@H]2[C@@]12CO[C@@]3(O)[C@@H](O)[C@@H]1[C@](C)(COC(C)=O)CC[C@@H]2O` reads 10.2 µM.
